In paper PMC3831292 (Frontiers in Pharmacology, 2013):

Legend:
Assay in all cases: two-electrode voltage clamp, Xenopus oocytes
Assay type in all cases: cell-based
[1] = target: T1, hTRESK (K2P18.1, KCNK18) (Homo sapiens, UniProt Q7Z418); details: read-out: TRESK
T1 construct: full-length cDNA in plasmid pEXO; cRNA injected into Xenopus laevis oocytes
T1 sequence (Q7Z418 1-384): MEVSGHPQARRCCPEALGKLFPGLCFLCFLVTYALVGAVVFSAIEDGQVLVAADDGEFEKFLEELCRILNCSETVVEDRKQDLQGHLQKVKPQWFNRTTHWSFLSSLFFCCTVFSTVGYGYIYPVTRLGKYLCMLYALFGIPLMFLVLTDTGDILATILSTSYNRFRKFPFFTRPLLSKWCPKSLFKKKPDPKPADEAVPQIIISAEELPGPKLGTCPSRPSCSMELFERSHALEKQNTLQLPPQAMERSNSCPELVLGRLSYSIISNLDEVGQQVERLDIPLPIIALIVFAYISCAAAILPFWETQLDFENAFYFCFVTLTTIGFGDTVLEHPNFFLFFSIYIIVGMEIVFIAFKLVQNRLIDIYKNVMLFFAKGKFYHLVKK
Excerpt: two-electrode voltage clamp, Xenopus oocytes on hTRESK (K2P18.1, KCNK18)

[2] = target: T2, hTASK-3 (K2P9.1, KCNK9) (Homo sapiens, UniProt Q9NPC2); details: read-out: TASK-3
T2 construct: full-length cDNA in pBR4-TOPO (mutants in pCDNA3); cRNA injected into Xenopus laevis oocytes
T2 sequence (Q9NPC2 whole entry): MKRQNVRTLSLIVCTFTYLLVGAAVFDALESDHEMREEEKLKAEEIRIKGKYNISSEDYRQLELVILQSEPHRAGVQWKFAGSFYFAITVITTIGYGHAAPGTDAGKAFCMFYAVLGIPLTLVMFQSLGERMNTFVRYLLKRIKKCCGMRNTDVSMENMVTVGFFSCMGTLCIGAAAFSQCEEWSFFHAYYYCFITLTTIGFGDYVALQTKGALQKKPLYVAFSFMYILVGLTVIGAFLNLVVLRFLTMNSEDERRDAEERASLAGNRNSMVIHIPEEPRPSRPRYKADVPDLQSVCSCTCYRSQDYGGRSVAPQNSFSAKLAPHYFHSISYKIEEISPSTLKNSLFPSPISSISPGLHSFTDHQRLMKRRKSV
Excerpt: two-electrode voltage clamp, Xenopus oocytes on hTASK-3 (K2P9.1, KCNK9)

[3] = target: T3, hTASK-1 (K2P3.1, KCNK3) (Homo sapiens, UniProt O14649); details: read-out: TASK-1
T3 construct: full-length cDNA in pIRES-CD8 vector; cRNA injected into Xenopus laevis oocytes
T3 sequence (O14649 whole entry): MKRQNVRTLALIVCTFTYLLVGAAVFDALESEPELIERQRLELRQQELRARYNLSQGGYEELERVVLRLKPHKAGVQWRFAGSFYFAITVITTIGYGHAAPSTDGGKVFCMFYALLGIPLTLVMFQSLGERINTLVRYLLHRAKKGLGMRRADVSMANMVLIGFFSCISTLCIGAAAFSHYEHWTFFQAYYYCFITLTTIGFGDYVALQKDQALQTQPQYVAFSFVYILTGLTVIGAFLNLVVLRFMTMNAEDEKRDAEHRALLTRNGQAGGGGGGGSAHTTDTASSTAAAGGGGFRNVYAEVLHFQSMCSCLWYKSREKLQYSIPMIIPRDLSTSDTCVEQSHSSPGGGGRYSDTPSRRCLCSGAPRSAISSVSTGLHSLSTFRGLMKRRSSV
Excerpt: two-electrode voltage clamp, Xenopus oocytes on hTASK-1 (K2P3.1, KCNK3)

Row | IC50 [1] [µM] | IC50 [2] [µM] | IC50 [3] [µM] | Compound
1 | 155 ± 70.9 | 385 ± 55.6 | 227 ± 46.5 | CCCCC[C@H](O)CC(=O)CCc1ccc(O)c(OC)c1 [6-gingerol]
2 | 231 ± 105 | 133 ± 5.9 |  | O=C(/C=C/C=C/c1ccc2c(c1)OCO2)N1CCCCC1 [piperine]
3 |  | 328 ± 24.7 | 485 ± 18.2 | CC1(C)CCC[C@]2(C)[C@@H](C=O)C(C=O)=CC[C@@H]12 [polygodial]

Row | Compound | IC50 [1] [µM] | IC50 [2] [µM] | IC50 [3] [µM]
4 | COc1cc(CNC(=O)CCCC/C=C/C(C)C)ccc1O [capsaicin] | 70.2 ± 5.3 | 41.8 ± 3.6 | 61.1 ± 4
